In PubChem BioAssay AID1419 (Emory University Molecular Libraries Screening Center, 2008):
pIC50: −log10 of the molar value. Activity calls are given as the source filed them. How the calls were made is not given here.

Experiment: EBV protein-peptide binding inhibitors, dose response, biochemical, fluorescence polarization (AID 1419)
Settings: cell-free protein-peptide binding, 2 h; for fold change: measured here: P channel fold over control, at 54 µM

SMILES: NC(=S)n1[nH]c(-c2ccc([N+](=O)[O-])cc2)c(N=Nc2cccc([N+](=O)[O-])c2)c1=O
- pIC50: 5.43
- fold change: 1.14

SMILES: COc1ccc2nc(N3C(=O)/C(=C/c4ccc(Cl)cc4)NC3=S)sc2c1
- IC50: > 54 µM (inactive)
- fold change: 1.37

SMILES: COc1ccc(NC(=O)c2sc3nc(-c4cccnc4)ccc3c2N)cc1
- pIC50: 5.61
- fold change: 6.91

SMILES: Cc1ccc2[nH]c(O)c(N=NC(=O)c3ccc(NS(=O)(=O)c4cccs4)cc3)c2c1
- IC50: > 54 µM (inactive)
- fold change: 0.957

SMILES: COc1cc(/C=C2\SC(=O)N(c3cccc(Cl)c3)C2=O)cc([N+](=O)[O-])c1O
- pIC50: 5.45
- fold change: 1.04

SMILES: Cc1ccc(C2=N/C(=C\c3c(C)nn(-c4ccccc4)c3N3CCCC3)C(=O)O2)cc1
- pIC50: 5.24
- fold change: 6.13

SMILES: Cn1c(=O)c(NCCc2ccccc2)c2c3c(cccc31)C(=O)c1ccccc1-2
- pIC50: > 6.38
- fold change: 226

SMILES: Cc1n[nH]c(C)c1N1C(=O)c2cccc3c(N4CCCCCC4)ccc(c23)C1=O
- pIC50: > 6.38
- fold change: 88.6

SMILES: Cc1ccc2cc3c(N)c4c(C)ccc(C)c4nc3nc2c1
- pIC50: 6.04
- fold change: 6.77

SMILES: CCOc1ccc(Cn2c3ccc(OC)cc3c3nc4ccccc4nc32)cc1
- pIC50: 5.94
- fold change: 6.17

SMILES: COc1ccc(Cl)cc1CN1CCN(c2nc(C)cc(C)c2C#N)CC1
- pIC50: 4.72
- fold change: 2.25

SMILES: CC(C)Oc1ccc(NC(=O)CCC(=O)O)cc1
- IC50: > 54 µM (inactive)
- fold change: 1.01

SMILES: O=C(c1ccc(Cl)cc1)C1C2C(=O)N(c3ccccc3)C(=O)C2C2CCCN21 (stereo not given)
- pIC50: > 6.38
- fold change: 8

SMILES: CCC1=NN2C(=N)/C(=C\c3ccc(OCc4cc(=O)n5nc(CC)sc5n4)c(OC)c3)C(=O)N=C2S1
- IC50: > 54 µM (inactive)
- fold change: 1.08

SMILES: Cc1cc(N2CCCC2)ccc1C=C(C#N)C#N
- pIC50: 5.73
- fold change: 15.3

SMILES: Cc1ccccc1-n1c(SCc2c(C)noc2C)nnc1-c1cccnc1
- pIC50: 5.45
- fold change: 4.88

SMILES: CCOC(=O)c1c(/N=C/c2c(O)n(-c3ccccc3F)c(=S)[nH]c2=O)sc2c1CCCC2
- pIC50: 5.53
- fold change: 29.6

SMILES: COC(=O)c1cc2c(C)cc3ccc(C)cn3c-2c1C(=O)OC
- pIC50: 5.02
- fold change: 4.48

SMILES: COCCCNC(=O)c1ccc2c3c(onc13)-c1ccccc1C2=O
- pIC50: > 6.38
- fold change: 217

SMILES: COc1ccc(-c2nnc(Nc3ccc(S(=O)(=O)Nc4nccs4)cc3)c3ccccc23)cc1
- IC50: > 54 µM (inactive)
- fold change: 1.09

SMILES: O=C(c1ccccc1)c1ccc2c(c1)OCCCO2
- IC50: > 54 µM (inactive)
- fold change: 1.02

SMILES: CCN(CC)c1ccc(/C=c2\sc3nnc(-c4ccccc4Cl)n3c2=O)cc1
- pIC50: 5.58
- fold change: 16.1

SMILES: CC(C)[C@H]1C(=O)N2CCC[C@H]2[C@]2(O)O[C@](NC(=O)[C@@H]3C=C4c5cccc6[nH]cc(c56)C[C@H]4N(C)C3)(C(C)C)C(=O)N12
- pIC50: 5.44
- fold change: 5.11

SMILES: Cc1cc(C=C2C(=O)NC(=S)NC2=O)c(C)n1-c1ccc2c(c1)OCO2
- IC50: 43.5 µM (inactive)
- fold change: 2.39

SMILES: O=C(O)COc1ccc(-c2nccc(-c3cccs3)n2)cc1
- IC50: > 54 µM (inactive)
- fold change: 1.03

SMILES: Cc1cc(-c2ccccc2)c(C#N)c(=S)[nH]1
- IC50: > 54 µM (inactive)
- fold change: 1.04

SMILES: CCN(CC)S(=O)(=O)c1ccc(C(=O)OCCN2C(=O)c3cccc4c(N5CCOCC5)ccc(c34)C2=O)cc1
- pIC50: 5.82
- fold change: 111

SMILES: Cc1cccc(N2C(=O)c3cccc4c(N(C)CCO)ccc(c34)C2=O)c1
- pIC50: > 6.38
- fold change: 34.9

SMILES: Cc1ccc(-c2noc(CCC(=O)N3CCCC3)n2)cc1
- IC50: > 54 µM (inactive)
- fold change: 1.01

SMILES: COc1ccc(N=Cc2c(O)n(Cc3ccccc3)c(=S)[nH]c2=O)c(OC)c1
- IC50: > 54 µM (inactive)
- fold change: 3.88

SMILES: Cc1ccc(S(=O)(=O)Nc2ccc(N3CCN(C)CC3)nc2)cc1
- pIC50: 5.44
- fold change: 2.82

SMILES: O=C1C2C3C=CC(C3=C(c3ccccc3)c3ccccc3)C2C(=O)N1Cc1ccccc1 (stereo not given)
- IC50: > 54 µM (inactive)
- fold change: 0.99

SMILES: NC(=S)n1[nH]c(-c2ccc([N+](=O)[O-])cc2)c(N=Nc2cccc(Cl)c2)c1=O
- pIC50: 5.43
- fold change: 1.19

SMILES: Cc1ccc(/C=C/C(=O)OCc2nc(N)nc(Nc3ccccc3C)n2)o1
- IC50: > 54 µM (inactive)
- fold change: 0.917

SMILES: CC(C)(C)N1CC(c2nc3ccccc3n2CCOc2ccccc2)CC1=O (stereo not given)
- pIC50: 4.81
- fold change: 1.08

SMILES: COc1ccc(N=C2NC(=O)S/C2=C\c2ccc(N(C)C)cc2)cc1
- pIC50: 5.32
- fold change: 3.03

SMILES: Fc1ccccc1C(c1nnnn1C1CCCC1)N1CCN(Cc2ccccc2)CC1 (stereo not given)
- IC50: > 54 µM (inactive)
- fold change: 1.05

SMILES: CCCCCn1c(N)c(-c2nc3ccccc3o2)c2c([N+](=O)[O-])nn(CC)c(=O)c21
- IC50: > 54 µM (inactive)
- fold change: 0.747

SMILES: CCSc1nnc(NC(=O)C(C(F)(F)F)C(F)(F)F)s1
- IC50: > 54 µM (inactive)
- fold change: 0.583

SMILES: CCOCCCn1c(=NC(=O)c2cccs2)c(C#N)cc2c(=O)n3cccc(C)c3nc21
- pIC50: 5.12
- fold change: 4.61

SMILES: CCc1ccc2nc3sc(C(=O)N4CCc5ccccc54)c(N)c3cc2c1
- pIC50: > 6.38
- fold change: 16.6

SMILES: Cc1nc(NC(=O)c2ccccc2)sc1-c1csc(Nc2ccc(C(=O)O)cc2)n1
- pIC50: 5.64
- fold change: 0.97

SMILES: O=C(O)CCC(=O)NCCC1=c2ccccc2=N/C1=C\c1c(O)n(Cc2ccc(F)cc2)c(=S)[nH]c1=O
- pIC50: 5.34
- fold change: 1.16

SMILES: Nc1ccc2nc3c(=O)[nH]c(=S)[nH]c3nc2c1
- pIC50: > 6.38
- fold change: 86.2

SMILES: CN(C)c1ccc(/C=c2/sc3n(c2=O)NC2(c4ccccc4)N(C)C(=O)N(C)C2(c2ccccc2)N=3)cc1 (stereo not given)
- IC50: > 54 µM (inactive)
- fold change: 5.21

SMILES: O=[N+]([O-])c1ccc(/C=N/n2c(CO)nc3ccccc32)s1
- pIC50: 4.64
- fold change: 6.56

SMILES: Cc1cc(C=C2C(=O)c3ccccc3C2=O)c(C)n1-c1ccccc1
- pIC50: 5.25
- fold change: 9.41

SMILES: Cc1cc(C=C2C(=O)c3ccccc3C2=O)c(C)n1-c1ccc(Cl)cc1
- pIC50: 5.07
- fold change: 6.3

SMILES: COc1ccc(N/C=C2\C(=O)CCc3c2oc2cc(Cl)c(O)c(Cl)c32)cc1
- IC50: > 54 µM (inactive)
- fold change: 11.2

SMILES: CCOC(=O)c1sc2nc3c(SCCC(=O)O)cc(C(=O)c4cc(OC)ccc4O)cn3c(=O)c2c1C
- IC50: > 54 µM (inactive)
- fold change: 1.04

SMILES: COc1ccc2nc(C)cc(N3CCOCC3)c2c1
- IC50: > 54 µM (inactive)
- fold change: 1.04

SMILES: NS(=O)(=O)c1ccc(N/N=C/c2ccc(O)c(O)c2O)c([N+](=O)[O-])c1
- pIC50: 5.50
- fold change: 1.05

SMILES: O=C1c2cccc3c(O)ccc(c23)C(=O)N1Cc1ccccc1
- pIC50: > 6.38
- fold change: 138

SMILES: Cc1ccc(NC(=O)CN2C(=O)S/C(=C/c3ccc(O)c([N+](=O)[O-])c3)C2=O)cc1C
- IC50: > 54 µM (inactive)
- fold change: 0.99

SMILES: CCc1ccc(NC(=O)c2ccc3ncsc3c2)cc1
- IC50: > 54 µM (inactive)
- fold change: 0.87

SMILES: CCn1c(C)cc(C=C2C(=O)c3ccccc3C2=O)c1C
- pIC50: 4.79
- fold change: 8.23

SMILES: S=C(Nc1ccc(N2CCOCC2)cc1)Nc1ccc2nc(-c3ccco3)c(-c3ccco3)nc2c1
- pIC50: 5.41
- fold change: 3.7

SMILES: Cc1nc2nc(-c3cccs3)cn2nc1C
- pIC50: 5.73
- fold change: 6.46

SMILES: O=c1oc2c3c4c(cc2c(C(F)(F)F)c1CCN1CCOCC1)CCCN4CCC3
- pIC50: > 6.38
- fold change: 35.9

SMILES: O=C(NNC1=Nc2cccc3cccc1c23)c1ccc(Br)cc1
- IC50: > 54 µM (inactive)
- fold change: 3.27

SMILES: CC(C)NC(=O)c1sc2nc(-c3cccs3)cc(-c3cccs3)c2c1N
- pIC50: 5.68
- fold change: 15.4

SMILES: O=C(Cn1cc2c(n1)CCCC2)NCc1ccccn1
- pIC50: 4.59
- fold change: 1.54

SMILES: CCN(CC)c1ccc(/C=C(/C#N)c2nc3ccccc3[nH]2)c(OC(C)C)c1
- pIC50: 4.97
- fold change: 14.3

SMILES: CC(C)(C)c1ccc(OCC(=O)Nc2ccc3c4c(cccc24)C(=O)NC3=O)cc1
- IC50: > 54 µM (inactive)
- fold change: 2.15

SMILES: CCN1CC=C2C(C#N)=C(N)C(C#N)(C#N)[C@H](c3ccoc3)[C@H]2C1
- pIC50: 5.13
- fold change: 3.84

SMILES: CCOc1cccc(C2C(C(=O)c3ccc(C)o3)=C(O)C(=O)N2c2nccs2)c1 (stereo not given)
- pIC50: > 6.38
- fold change: 8.6

SMILES: COc1cc(/C=C2\SC(=O)N(Cc3ccc(F)cc3)C2=O)cc([N+](=O)[O-])c1O
- IC50: > 54 µM (inactive)
- fold change: 0.843

SMILES: CN(C)c1ccc(/C=C/C(=O)c2cc(Cl)ccc2O)cc1
- pIC50: 4.80
- fold change: 1.94

SMILES: CC1=CC(=C(C#N)c2nc3ccccc3s2)C=C(C)N1CC1CCCO1 (stereo not given)
- pIC50: 5.41
- fold change: 9.43

SMILES: Cc1cccc(NC(=O)CSc2nnnn2C)n1
- IC50: > 54 µM (inactive)
- fold change: 1.02

SMILES: O=C(NCCCn1ccnc1)c1ccc2c(c1)OCCO2
- IC50: > 54 µM (inactive)
- fold change: 1.03

SMILES: Cc1ccc(S(=O)(=O)c2c(N)n(Cc3ccco3)c3nc4ccccc4nc23)cc1
- IC50: > 54 µM (inactive)
- fold change: 1.41

SMILES: CC1=CC(=C(C#N)c2nc3ccccc3s2)C=C(C)N1c1ccc(F)cc1
- pIC50: 5.15
- fold change: 38.9

SMILES: CC1(c2ccc3noc(-c4ccc(F)cc4)c3c2)OCCO1
- pIC50: 5.82
- fold change: 3.53

SMILES: CCCCCCOC(=O)C(C#N)c1nc2ccccc2nc1N1CCOCC1 (stereo not given)
- pIC50: 4.84
- fold change: 8.17

SMILES: Cc1cc(NC(=O)Cc2cccs2)no1
- pIC50: 4.77
- fold change: 1.09

SMILES: CSc1c(C#N)c(N)nc2sc(C(=O)c3ccc(Cl)c(Cl)c3)c(N)c12
- pIC50: 5.76
- fold change: 9.22

SMILES: Fc1ccc(C2=CC(c3ccc(Br)o3)n3ncnc3N2)cc1 (stereo not given)
- pIC50: 5.58
- fold change: 3.2

SMILES: COC(CNC(=O)c1ccc2c3c(onc13)-c1ccccc1C2=O)OC
- pIC50: > 6.38
- fold change: 137

SMILES: O=c1[nH]c2ccc(N=Cc3c(O)ccc4cc(Br)ccc34)cc2[nH]1
- pIC50: 6.01
- fold change: 7.85
